Where two headings read alike, the source gives them in different places.
Columns and labels:
[1] = target: T1, Cp149 (truncated form of a HBV core protein) (Hepatitis B virus genotype D subtype ayw, UniProt P03146); experiment: Protein based assay: immunoblot analysis of in vitro HBV capsid assembly; type: biochemical; details: for inhibition at 10 µM: read-out: Protein based assay (% inhibition, 10 μM)
T1 construct: Cp149 (amino acids 1-149) is a truncated form of a HBV core protein; histidine tag (cleaved yes); made in house; host or cells: Escherichia coli BL21(DE3)
T1 sequence (P03146 1-149): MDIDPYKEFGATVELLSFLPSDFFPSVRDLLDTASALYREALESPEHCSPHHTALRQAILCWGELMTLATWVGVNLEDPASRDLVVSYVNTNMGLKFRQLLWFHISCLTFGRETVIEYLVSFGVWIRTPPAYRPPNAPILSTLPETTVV
Method: Cp149 (amino acids 1-149) is a truncated form of a HBV core protein. It was expressed in Escherichia coli, and the expressed protein was purified. The recombinant Cp149 was expressed in E. coli BL21(DE3) cells cultured in LB medium at 37° C. When the culture reached an OD600 of 0.7 to 0.8, expression of the culture was induced with 0.5 mM isopropyl-β-d-thiogalactopyranoside and the culture was cooled to 16° C. After 16 hours, the cells were harvested, flash-frozen in liquid nitrogen, and stored at −80° C. To purify Cp149, thawed cells were resuspended in lysis buffer (20 mM Tris-HCl pH 9.0, 200 mM NaCl, 10 mM imidazole, 10 μg per mL DNaseI, 1 mM phenylmethylsulfonyl fluoride), and treated with ultrasonic waves. The supernatant was loaded onto Ni-NTA affinity resin. Proteins were eluted using a 20 mM to 500 mM imidazole gradient dissolved in lysis buffer. After removing the histidine tag with thrombin, the protein was further purified by HiTrap Q anion exchange chromatography (17115401, GE Healthcare).
To determine the effect on in vitro Cp149 assembly, compounds of the present invention were added to the Cp149-containing suspension. The final concentration of Cp149 was 1 mg per mL, and the compounds of the present invention were added at concentrations of 0.1 to 10 μM. The suspension was mixed with reaction buffer (150 mM HEPES, pH 7.5, 15 mM NaCl) added in a 2:1 ratio. In vitro assembly was performed at 37° C. for 1 hour, and HBV capsid was detected by immunoblot analysis using an anti-HBV core antibody (1:2000, B0586, Dako).

HBV DNA = experiment: Quantitative PCR for measuring HBV DNA in cells (HBV DNA quantification); type: cell-based
Method: After treating cells with the indicated compounds, HBV DNA secreted into the medium and intracellular HBV DNA were extracted, purified, and quantified by quantitative PCR. To isolate the secreted HBV DNA, the culture medium was recovered and centrifuged at 15,000×g to remove debris. The medium was diluted 1:1 with phosphate-buffered saline (PBS), and 1 M NaOH solution was added to a final concentration of 0.1 M. The mixture was incubated at 37° C. for 1 hour. The protein was denatured by adding 2M Tris-HCl solution (pH 7.5) to a final concentration of 0.2 M and incubating at 98° C. for 5 minutes. The protein precipitation was removed by centrifugation at 15,000×g, and the supernatant was subjected to PCR with HBV DNA primer and probe sets:
Forward: 5′-[…]-3′, Reverse: 5′-[…]-3′, Probe: 5′-[…]-3′.

[2] = Hepatitis B virus, read-out: HBV DNA quantification (IC50 μM)
[3] = Hepatitis B virus; read-out: HBV DNA quantification (IC50 μM)

Compound `COc1ncccc1C(=O)NCCNc1cc(Nc2ccccc2)nc([S+](C)[O-])n1` (centres unmarked) [Compound 9a, 2-methoxy-N-(2-(2-(methylsulfinyl)-6-(phenylamino)pyrimidin-4-ylamino)ethyl)nicotinamide] has an inhibition at 0.1 µM ([1]; read-out: Protein based assay (% inhibition), 0.1 μM) of 14%, an inhibition at 1 µM ([1]; read-out: Protein based assay (% inhibition), 1 μM) of 83% and an IC50 (HBV DNA; [2]) of 0.484 µM.
With `COc1ncccc1C(=O)NCCNc1cc(Nc2ccc(N3CCOCC3)cc2)nc(SC)n1` [Compound 4a, 2-methoxy-N-(2-(2-(methylthio)-6-(4-morpholinophenylamino)pyrimidin-4-ylamino)ethyl)nicotinamide] the IC50 [1] was 9.8 µM, the inhibition at 10 µM [1] was 23% and the IC50 (HBV DNA; [3]) was greater than 10 µM.
Compound `C[S+]([O-])c1nc(NCCNC(=O)c2ccc(Cl)cc2Cl)cc(Nc2ccc(N3CCOCC3)cc2)n1` (centres unmarked) [Compound 5d, 2,4-dichloro-N-(2-(2-(methylsulfinyl)-6-(4-morpholinophenylamino)pyrimidin-4-ylamino)ethyl)benzamide] has an inhibition at 10 µM [1] of 0% and an IC50 (HBV DNA; [2]) greater than 10 µM.
For `CSc1nc(NCCNC(=O)c2ccc(Cl)cc2Cl)cc(Nc2ccc(N3CCOCC3)cc2)n1` [Compound 4d, 2,4-dichloro-N-(2-(2-(methylthio)-6-(4-morpholinophenylamino)pyrimidin-4-ylamino)ethyl)benzamide], the inhibition at 10 µM [1] was 0% and the IC50 (HBV DNA; [2]) was greater than 10 µM.
`COc1ncccc1C(=O)NCCNc1cc(Nc2ccc(F)cc2Cl)nc([S+](C)[O-])n1` (centres unmarked) [Compound 9h, N-(2-(6-(2-chloro-4-fluorophenylamino)-2-(methylsulfinyl)pyrimidin-4-ylamino)ethyl)-2-methoxynicotinamide] showed an inhibition at 10 µM [1] of 43% and an IC50 (HBV DNA; [2]) greater than 10 µM.
`CSc1nc(N)cc(N(CCc2ccc(F)cc2)c2ccc(N3CCOCC3)cc2)n1` [Compound 11b, N^4-(4-fluorophenethyl)-2-(methylthio)-N^4-(4-morpholinophenyl)pyrimidine-4,6-diamine] gave an inhibition at 10 µM [1] of 74% and an IC50 (HBV DNA; [3]) greater than 10 µM.

From patent publication US20230399320A1, “NOVEL CAPSID ASSEMBLY INHIBITOR” (Pelemed Co., Ltd., priority 2020, published 2023)
